Reference: the NIST ThermoML archive (doi:10.1021/je1001413)
Numbers after ± are expanded uncertainties.

Details: Liquid, Vibrating tube method

CC(C)CCCCCCCOC(=O)c1ccccc1C(=O)OCCCCCCCC(C)C
Details	mass density [kg/m3]
313.15 K, 100 kPa	952.6 ± 2.9
313.15 K, 200 kPa	952.6 ± 2.9
313.15 K, 400 kPa	952.8 ± 2.9
313.15 K, 620 kPa	952.9 ± 2.9
313.15 K, 800 kPa	953 ± 2.9
313.15 K, 1030 kPa	953.1 ± 2.9
313.15 K, 2010 kPa	953.7 ± 2.9
313.15 K, 3000 kPa	954.3 ± 2.9
313.15 K, 4000 kPa	955 ± 2.9
313.15 K, 5020 kPa	955.5 ± 2.9
313.15 K, 5990 kPa	956.2 ± 2.9
313.15 K, 7030 kPa	956.7 ± 2.9
313.15 K, 8000 kPa	957.4 ± 2.9
313.15 K, 9020 kPa	957.9 ± 2.9
313.15 K, 10010 kPa	958.5 ± 2.9
313.15 K, 15010 kPa	961.4 ± 2.9
313.15 K, 20000 kPa	964.2 ± 2.9
313.15 K, 25030 kPa	967 ± 2.9
313.15 K, 30000 kPa	969.7 ± 2.9
313.15 K, 35020 kPa	972.2 ± 2.9
313.15 K, 40020 kPa	974.8 ± 2.9
313.15 K, 45010 kPa	977.2 ± 2.9
313.15 K, 49970 kPa	979.7 ± 2.9
313.15 K, 55000 kPa	982 ± 2.9
313.15 K, 59980 kPa	984.4 ± 3
313.15 K, 64970 kPa	986.6 ± 3
323.15 K, 100 kPa	945.4 ± 2.8
323.15 K, 210 kPa	945.5 ± 2.8
323.15 K, 400 kPa	945.6 ± 2.8
323.15 K, 600 kPa	945.7 ± 2.8
323.15 K, 800 kPa	945.9 ± 2.8
323.15 K, 1000 kPa	946 ± 2.8
323.15 K, 2000 kPa	946.6 ± 2.8
323.15 K, 3030 kPa	947.2 ± 2.8
323.15 K, 4030 kPa	947.9 ± 2.8
323.15 K, 5020 kPa	948.5 ± 2.8
323.15 K, 6010 kPa	949.1 ± 2.9
323.15 K, 7000 kPa	949.7 ± 2.9
323.15 K, 8000 kPa	950.3 ± 2.9
323.15 K, 9010 kPa	950.9 ± 2.9
323.15 K, 10020 kPa	951.6 ± 2.9
323.15 K, 15000 kPa	954.5 ± 2.9
323.15 K, 20010 kPa	957.5 ± 2.9
323.15 K, 25030 kPa	960.3 ± 2.9
323.15 K, 30010 kPa	963.2 ± 2.9
323.15 K, 34970 kPa	965.8 ± 2.9
323.15 K, 40000 kPa	968.5 ± 2.9
323.15 K, 45000 kPa	970.9 ± 2.9
323.15 K, 49980 kPa	973.5 ± 2.9
323.15 K, 54980 kPa	975.8 ± 2.9
323.15 K, 60000 kPa	978.3 ± 2.9
323.15 K, 65000 kPa	980.6 ± 2.9
333.15 K, 100 kPa	938.3 ± 2.8
333.15 K, 200 kPa	938.4 ± 2.8
333.15 K, 400 kPa	938.5 ± 2.8
333.15 K, 630 kPa	938.7 ± 2.8
333.15 K, 800 kPa	938.8 ± 2.8
333.15 K, 1000 kPa	938.9 ± 2.8
333.15 K, 2010 kPa	939.6 ± 2.8
333.15 K, 3000 kPa	940.2 ± 2.8
333.15 K, 4000 kPa	940.9 ± 2.8
333.15 K, 5000 kPa	941.5 ± 2.8
333.15 K, 6000 kPa	942.2 ± 2.8
333.15 K, 7030 kPa	942.8 ± 2.8
333.15 K, 7980 kPa	943.5 ± 2.8
333.15 K, 9010 kPa	944.1 ± 2.8
333.15 K, 10030 kPa	944.8 ± 2.8
333.15 K, 14990 kPa	947.9 ± 2.8
333.15 K, 20000 kPa	951 ± 2.9
333.15 K, 25000 kPa	953.8 ± 2.9
333.15 K, 30020 kPa	956.7 ± 2.9
333.15 K, 34990 kPa	959.4 ± 2.9
333.15 K, 39970 kPa	962.2 ± 2.9
333.15 K, 45020 kPa	964.8 ± 2.9
333.15 K, 50000 kPa	967.4 ± 2.9
333.15 K, 55020 kPa	969.8 ± 2.9
333.15 K, 60000 kPa	972.3 ± 2.9
333.15 K, 65000 kPa	974.7 ± 2.9
343.15 K, 100 kPa	931.2 ± 2.8
343.15 K, 220 kPa	931.3 ± 2.8
343.15 K, 430 kPa	931.5 ± 2.8
343.15 K, 610 kPa	931.6 ± 2.8
343.15 K, 810 kPa	931.8 ± 2.8
343.15 K, 1000 kPa	931.9 ± 2.8
343.15 K, 2000 kPa	932.6 ± 2.8
343.15 K, 3000 kPa	933.3 ± 2.8
343.15 K, 3980 kPa	934 ± 2.8
343.15 K, 5010 kPa	934.6 ± 2.8
343.15 K, 5980 kPa	935.3 ± 2.8
343.15 K, 7000 kPa	936 ± 2.8
343.15 K, 7990 kPa	936.6 ± 2.8
343.15 K, 9020 kPa	937.3 ± 2.8
343.15 K, 9980 kPa	937.9 ± 2.8
343.15 K, 15010 kPa	941.2 ± 2.8
343.15 K, 19990 kPa	944.3 ± 2.8
343.15 K, 25010 kPa	947.4 ± 2.8
343.15 K, 29980 kPa	950.4 ± 2.9
343.15 K, 35030 kPa	953.3 ± 2.9
343.15 K, 40030 kPa	956.1 ± 2.9
343.15 K, 45010 kPa	958.7 ± 2.9
343.15 K, 50050 kPa	961.4 ± 2.9
343.15 K, 55000 kPa	964 ± 2.9
343.15 K, 60000 kPa	966.5 ± 2.9
343.15 K, 65020 kPa	968.9 ± 2.9
353.15 K, 100 kPa	924.2 ± 2.8
353.15 K, 200 kPa	924.3 ± 2.8
353.15 K, 410 kPa	924.5 ± 2.8
353.15 K, 630 kPa	924.6 ± 2.8
353.15 K, 800 kPa	924.8 ± 2.8
353.15 K, 1010 kPa	924.9 ± 2.8
353.15 K, 2000 kPa	925.6 ± 2.8
353.15 K, 3000 kPa	926.3 ± 2.8
353.15 K, 3980 kPa	927 ± 2.8
353.15 K, 4990 kPa	927.7 ± 2.8
353.15 K, 6000 kPa	928.4 ± 2.8
353.15 K, 7000 kPa	929.1 ± 2.8
353.15 K, 8010 kPa	929.8 ± 2.8
353.15 K, 9000 kPa	930.5 ± 2.8
353.15 K, 10010 kPa	931.2 ± 2.8
353.15 K, 15040 kPa	934.6 ± 2.8
353.15 K, 20000 kPa	937.9 ± 2.8
353.15 K, 24970 kPa	941 ± 2.8
353.15 K, 29980 kPa	944.1 ± 2.8
353.15 K, 35010 kPa	947.1 ± 2.8
353.15 K, 40000 kPa	950 ± 2.9
353.15 K, 45000 kPa	952.7 ± 2.9
353.15 K, 49990 kPa	955.5 ± 2.9
353.15 K, 55000 kPa	958.1 ± 2.9
353.15 K, 60010 kPa	960.7 ± 2.9
353.15 K, 65020 kPa	963.2 ± 2.9
363.15 K, 100 kPa	917.2 ± 2.8
363.15 K, 200 kPa	917.3 ± 2.8
363.15 K, 420 kPa	917.4 ± 2.8
363.15 K, 600 kPa	917.6 ± 2.8
363.15 K, 800 kPa	917.7 ± 2.8
363.15 K, 990 kPa	917.9 ± 2.8
363.15 K, 2000 kPa	918.6 ± 2.8
363.15 K, 2980 kPa	919.4 ± 2.8
363.15 K, 3960 kPa	920.1 ± 2.8
363.15 K, 4970 kPa	920.9 ± 2.8
363.15 K, 5990 kPa	921.6 ± 2.8
363.15 K, 7020 kPa	922.3 ± 2.8
363.15 K, 7980 kPa	923 ± 2.8
363.15 K, 9030 kPa	923.8 ± 2.8
363.15 K, 10000 kPa	924.5 ± 2.8
363.15 K, 15000 kPa	928 ± 2.8
363.15 K, 19990 kPa	931.4 ± 2.8
363.15 K, 25010 kPa	934.7 ± 2.8
363.15 K, 30020 kPa	937.9 ± 2.8
363.15 K, 34980 kPa	940.9 ± 2.8
363.15 K, 39990 kPa	943.9 ± 2.8
363.15 K, 44980 kPa	946.8 ± 2.8
363.15 K, 49990 kPa	949.6 ± 2.9
363.15 K, 55000 kPa	952.3 ± 2.9
363.15 K, 60040 kPa	955 ± 2.9
363.15 K, 64990 kPa	957.6 ± 2.9
